row,SMILES,melting point [°C]
1,N#Cc1nn(-c2c(Cl)cc(C(F)(F)F)cc2Cl)c(Sc2ccccc2)c1SC(F)(F)F,84 to 86
2,CCc1c(-c2ccc(OCc3ccccc3)cc2)c2c(C(=O)O)c(C(=O)O)c3c(OC)ccc1n32,198 to 200
3,O=C(O)C(=O)C(=O)Nc1cccc([N+](=O)[O-])c1,110
4,COc1ccccc1CNc1ccc2cc(Nc3nccc(C)n3)ccc2n1,125
5,C=C(C)C(=O)OC1c2nccnc2C(=O)N1c1ccc2ccc(Cl)nc2n1 (stereo not given),255
6,COc1ccc(-c2nn(Cc3ccc(Cl)cc3)c(=O)cc2-c2ccncc2)cc1,175 to 176
7,C#CCNC(=O)c1ccc(C(=O)OC)cc1,152 to 153
8,COC(=O)[C@@H]1CSCN1C(=O)/C=C\Sc1ccccc1,126 to 128
9,COc1ccc(-c2cc(SC)sc2-c2ccc(OC)cc2)cc1,106 to 108
10,CCOC(CNC(=S)Nc1c(F)ccc2nc(C)ccc12)OCC,189 to 191
11,CCCCCCCCCCCCCCOc1ccc(CC(=O)Nc2cccc(I)c2)cc1,108 to 110
12,O=C1NC(=O)C2(N1)C(=O)N(Cc1ccc(Cl)c(Cl)c1)c1ccccc12 (stereo not given),269 to 271
13,CCOC(=O)Cc1nc(C)n2c1CN=C(c1ccccc1Cl)c1cc(Cl)ccc1-2,143 to 154
14,COc1cc(/C=C/c2cc(/C=C/c3ccc4[nH]ccc4c3)n[nH]2)ccc1OCc1ccccn1,96 to 101
15,CC(C)(C)OC(=O)[C@H]1CC[C@@H](c2ccccc2)N1C(=O)CNC(=O)Nc1cccc(OCC(=O)O)c1 (racemic),192
16,O=C(O)c1cscc1Br,157 to 158
17,O=C(O)c1ccc(C(=O)NOCCCc2ccccc2)cc1,171 to 173
18,CCC(O)(CC)Cc1ccc(NC(=O)OCc2ccccc2)cc1,99 to 100
19,COc1cc2c(cc1NCc1ccccc1)ncc1c(N)nc(-c3cccnc3)cc12,251 to 258

# Now from value to compound:
row,melting point [°C],SMILES
1,187 to 189,CC1CC(=O)NN=C1c1ccc(NCC(C)(C)[N+](=O)[O-])cc1 (stereo not given)
2,109 to 110,COc1cc(NC(=O)CCCCCN2CCN(C3CCCCC3)CC2)c2nccc(C)c2c1
3,68 to 69,CCOC(=O)c1cc(OC)c(OCCOC)cc1[N+](=O)[O-]
4,118 to 120,O=S1NC(CC2=Cc3ccccc3CC2)=NO1 (stereo not given)
5,228 to 231,Nc1cccc(N2C(=O)c3ccc(N)cc3C2=O)c1
6,86 to 87,COc1cc(C(=O)C(C)C)ccc1O
7,135 to 136,Cc1ccc(-c2nc3ncccc3o2)cc1
8,228,Cn1c(/C=C/C=O)c(-c2ccccc2)c2ccccc2c1=O
9,165 to 169,CCCCCNc1nc(C)c(C(=O)c2ccc(N)c([N+](=O)[O-])c2)s1
10,188 to 189,CCc1noc(NC(=O)N2CCN(c3ccnc(-c4cccc(F)c4F)n3)CC2)c1C
11,54 to 55,CCOC(=O)c1cnoc1-c1ccc(OC)cc1
12,232 to 235,CS(=O)(=O)Nc1cccc(C2=Nc3ccc(-c4ccc(F)cc4)cc3NC(=O)C2)c1
13,131,COC1=C(OC)C(=O)C(CCC(=O)N2CCC[C@H]2C(=O)O)=C(C)C1=O
14,163 to 165,C=C1C=C(Oc2cc(C(=O)O)ccc2OC)C1(F)F
15,274 to 276,O=c1[nH]c2cc(Cl)ccc2c(O)c1-c1ccc(Oc2ccccc2)cc1
16,144 to 145,CCOC(=O)C(=C(c1ccc(F)cc1)c1ccc(F)cc1)c1nnnn1C
17,55 to 60,Cc1cc(C)c2c(c1)OCC2=O
18,256 to 258,Nc1ccc(C2=NNC(=O)Cc3cc4c(cc32)OCO4)cc1Cl
19,152 to 154,CC(C)(C)c1cc(SCCC(=O)NC2CCC3CC2C3(C)C)cc(C(C)(C)C)c1O (stereo not given)
20,> 250,Cc1c(C)n2nnnc2c2nc(C)n(CCNC(=O)OC(C)(C)C)c12
21,221,COc1cc(O)c2c(=O)c(OC)c(-c3ccc(N)cc3)oc2c1

# From a melting point compilation (Tetko et al.; mined from patent text by program, amines drawn as free bases though some values may be those of a salt)
